This note sets out measurements from patent US20240016784A1, “Y BOX BINDING PROTEIN 1 INHIBITORS” (Oregon Health & Science University, priority 2020, published 2024).

Assay [1] concerns OVCAR8, SKOV3, and ID8 cells. Description: Cell cycle analysis (propidium iodide, flow cytometry). The class given is cell-based. The protocol:
To determine whether proliferation inhibition was the dominant factor driving the reduction in OC viability seen with AzP treatment, we used propidium iodide and annexin-FITC stains with flow cytometry to measure the distribution of cell cycle phases after treatment. […] Furthermore, in the Boyden chamber assay for cell migration, SU093 inhibited cell migration by 40-46% (1 μM, P<0.05) in different OC cell lines.
Cell cycle analysis: 30,000 OC cells were plated in each well of 12 well plates and incubated for 24 h. […] Both live and dead cells were collected via trypsinization and cell pellets were fixed with 70% ethanol. Fixed cells were stained using propidium iodide (PI) cocktail (80 μg/mL RNase A and 50 μg/mL PI in saponin-EDTA solution) and incubated at 4° C. overnight. Each sample was analyzed using a Guava® easyCyte™ Flow Cytometer (Millipore, Burlington, MA). FlowJo software calculated the % cells in each cell cycle phase.
FIG. 1A) Lead optimization of SU093 to obtain SU056. FIG. 1B) IC50 values of SU093 and SU056 on various ovarian cancer cells. Clonogenic survival of OC cells treated with SU093 or SU056. […] FIG. 1C) Representative colony formation from respective wells. FIG. 1D) Number of colonies formed after SU093 and SU056 treatment. […] FIG. 1F) Cell cycle distribution of propidium iodide (PI)-stained OVCAR8, SKOV3, and ID8 cells. […] FIG. 1G) Effects of SU093 and SU056 on apoptotic cell death analyzed by Annexin-FITC staining. […] FIG. 1H) Cell migration assay.

Assay [2] deals with efflux of paclitaxel in OC cells. Briefly: Paclitaxel efflux assay. The class given is cell-based. To be noted: SU056 co-treatment vs only paclitaxel-treated cells. An excerpt: YB-1 is involved in the emergence of cisplatin and taxane drug resistance (Kang et al., 2013, Mo et al., 2016). Therefore, we tested whether SU056 synergizes with chemotherapies such as paclitaxel to modulate YB-1. To measure this, we performed a dose dependent combination study of SU056 and paclitaxel. […] ABCB1/MDR1 drug efflux pumps are also known to play an important downstream role with YB-1 in increased taxol efflux and subsequent TR in cancer. To evaluate whether SU056 affects drug efflux, we used Alexa Fluor-488-tagged paclitaxel to measure taxol efflux in vitro. […] Efflux is primarily driven by the ATP-binding cassette transporters (ABC pumps) present on the cell surface (Genovese et al., 2017). We examined the expression of MDR1 and YB-1 in OVCAR8 cells treated with vehicle, SU056, and paclitaxel combinations via Western blot.
Paclitaxel efflux assay: OC cells were treated with 5 nM Oregon Green™ 488-conjugated paclitaxel (Molecular Probes, #P22310) for 1 h. Cells were washed and incubated in phenol red-free DMEM media supplemented with 10% FBS. After each respective time point (30, 60, 120, 180 minutes), the media was collected and centrifuged to remove floating cells. The fluorescence intensity of efflux paclitaxel in media was read at Ex 496 and Em 524 using a multimode plate reader.
Combination index values for paclitaxel and SU056. […] FIG. 7C) Immunoblotting of YB-1 and MDR1. […]

For assay [3], the system named is MDA-MB-231, MDA-MB-468 and SUT1151-PDX xenografts. Briefly: Tumor xenografts of TNBC models. The class given is in vivo, Mice. To be noted: SU056 50 mg/kg, oral gavage. The protocol:
FIGS. 13A-13I. […] Mice were subcutaneously injected with MDA-MB-231 (2×10^6 cells), MDA-MB-468 (5×10^6 cells) and patient derived xenograft SUT1151-PDX (2×10^6 cells) and drug treatment started when tumor reached 100 mm^3. Mice were given either vehicle (40% PEG in saline) or SU056 (50 mg/kg) through oral route using oral gavage. FIG. 13A) Tumor volume (MDA-MB-231) as a function of time. FIG. 13B) Tumor weight (MDA-MB-231) at the end of the study. FIG. 13C) Body weight (MDA-MB-231) as a function of time. FIG. 13D) Tumor volume (MDA-MB-468) as a function of time. FIG. 13E) Tumor weight (MDA-MB-468) at the end of the study. FIG. 13F) Body weight (MDA-MB-468) as a function of time. FIG. 13G) Representative images of tumor (MDA-MB-231) at the end of study. FIG. 13H) Representative images of tumor (MDA-MB-468) at the end of study. FIG. 13I) Tumor volume (SUT1151-PDX) as a function of time. FIG. 13B) Tumor weight (SUT1151-PDX) at the end of the study. FIG. 13C) Body weight (SUT1151-PDX) as a function of time.

A further assay deals with YB-1 (Homo sapiens, UniProt P67809). Briefly: Cellular Thermal Shift Assay (CETSA) in OVCAR8 cells. The class given is binding. More on the design: endogenous in cells; host or cells: OVCAR8. To be noted: SU056 2.5 μM, 1.5 h, read-out: increase in thermal stability (Tm shift) of YB-1. The protocol:
The cellular thermal shift assay (CETSA) is based on the principle of protein-ligand interactions causing a shift in protein thermal stability (Savitski et al., 2014). When a protein interacts with ligand, its thermal stability increases, and this principle allows identification of which protein targets that are engaged by small molecules or drug candidates. We used this assay to identify protein targets of SU056. OVCAR8 cells were treated with SU056 (2.5 μM) for 1.5 h, and protein lysates were analyzed for a thermal shift. The heat maps represent the thermal stability of 804 soluble proteins in the presence and absence of SU056 compare with 37° C. (FIG. 3A).
Cellular Thermal Shift Assay (CETSA): The assay was performed as previously described (Savitski et al., 2014). Briefly, OVCAR8 cells were treated with vehicle (DMSO) or SU056 (2.5 μM) at 70-80% confluency for 1.5 h. Cells were harvested and washed with 1×PBS twice. Cells were pelleted and resuspended in PBS. 10 different PCR tubes with 1×10^6 cells/tube (in 100 μL PBS) were prepared for both the groups. Tubes were exposed to respective temperatures (37, 41, 44, 47, 50, 53, 56, 59, 63, 67° C.) for 3 min using a thermal cycler (Bio-Rad, CA, USA) followed by 2 min incubation at room temperature.

Sequence of YB-1 (P67809 whole entry): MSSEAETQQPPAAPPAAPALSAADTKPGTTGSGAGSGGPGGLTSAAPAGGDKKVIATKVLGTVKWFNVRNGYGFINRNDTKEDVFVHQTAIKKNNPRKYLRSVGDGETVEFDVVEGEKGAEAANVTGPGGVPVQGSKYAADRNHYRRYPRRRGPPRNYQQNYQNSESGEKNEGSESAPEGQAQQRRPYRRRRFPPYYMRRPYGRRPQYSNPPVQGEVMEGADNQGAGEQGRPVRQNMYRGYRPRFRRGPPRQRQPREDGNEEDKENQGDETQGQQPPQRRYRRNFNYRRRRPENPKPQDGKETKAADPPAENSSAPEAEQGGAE

`O=C1OCC2=C1C(c1cccc(F)c1)c1cc3c(cc1N2CCO)OCO3` (centres unmarked) [SU056, 9-(3-fluorophenyl)-5-(2-hydroxyethyl)-6,9-dihydro-[1,3]dioxolo[4,5-g]furo[3,4-b]quinolin-8(5H)-one]: in assay [1] (12 h treatment, PI-stained OVCAR8, SKOV3, ID8), the cell cycle distribution entry was “G1 phase arrest”. The “cell cycle arrest, comparison of SU056 with SU093” value in assay [1] (OC lines) is “greater cell cycle arrest than SU093”. For the same molecule, the “efflux of Alexa Fluor-488-tagged paclitaxel” value in assay [2] is “significantly inhibits the efflux of paclitaxel”. For the same molecule, in assay [3], the “tumor xenograft growth, TNBC models” value is “inhibit tumor xenograft of TNBC models”. The ΔTm at 2.5 µM at YB-1 is 5.92 ± 0.86 °C.
